Data taken from patent publication US20250026752A1, “POSITIVE ALLOSTERIC MODULATORS OF THE MUSCARINIC ACETYLCHOLINE RECEPTOR M4” (Vanderbilt University, priority 2021, published 2025).

Target: T1, human mAChR M4 (Homo sapiens, UniProt P08173)
T1 construct: expressed in transfected cells; host or cells: CHO-K1 (ATCC), stably expressing hM4 and Gqi5
T1 sequence (P08173 1-479): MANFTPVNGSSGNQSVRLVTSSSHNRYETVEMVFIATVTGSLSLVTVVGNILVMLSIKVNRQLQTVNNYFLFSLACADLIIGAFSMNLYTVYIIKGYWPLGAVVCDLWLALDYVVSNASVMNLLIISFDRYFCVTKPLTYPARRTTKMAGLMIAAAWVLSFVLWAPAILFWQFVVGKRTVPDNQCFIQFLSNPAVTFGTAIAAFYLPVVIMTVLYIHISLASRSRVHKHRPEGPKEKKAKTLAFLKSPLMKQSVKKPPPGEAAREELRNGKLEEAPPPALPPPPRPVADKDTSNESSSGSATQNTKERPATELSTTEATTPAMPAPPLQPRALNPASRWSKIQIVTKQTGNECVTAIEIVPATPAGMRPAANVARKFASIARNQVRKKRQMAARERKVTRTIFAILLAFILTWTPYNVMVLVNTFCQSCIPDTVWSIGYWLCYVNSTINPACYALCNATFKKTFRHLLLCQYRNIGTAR
Assay: mAChR M4 cell-based functional assay: calcium flux (Fluo-4, FDSS), positive allosteric modulator activity on the EC20 acetylcholine response, hM4-Gqi5 CHO-K1 cells
Conditions: for Emax at 30 µM: CHO-K1, human M4, % ACh maximum at 30 μM; for EC50: human M4, PAM activity on EC20 acetylcholine response, calcium flux, read-out: Human M4 EC50
Experimental: Human M4 cDNA, along with the chimeric G protein Gqi5, were transfected into Chinese hamster ovary (CHO-K1) cells purchased from the American Type Culture Collection using commercially available Lipofectamine 2000 transfection reagent (Dalby, B. et al., Methods (2004) 33(2), 95-103). hM4-Gqi5 cells were grown in Ham's F-12 medium containing 10% heat-inactivated fetal bovine serum (FBS), 20 mM […], 50 μg/mL G418 sulfate (CAS #108321-42-2), and 500 μg/mL Hygromycin B. rM4-Gqi5 cells were grown in DMEM containing 10% heat-inactivated FBS, 20 mM HEPES, 400 μg/mL G418 sulfate, and 500 μg/mL Hygromycin B.
For high throughput measurement of agonist-evoked increases in intracellular calcium, CHO-K1 cells stably expressing muscarinic receptors were plated in growth medium lacking G418 sulfate and hygromycin at 15,000 cells/20 μL/well in Greiner 384-well black-walled, tissue culture (TC)-treated, clear-bottom plates (VWR). Cells were incubated overnight at 37° C. and 5% C02. The next day, cells were washed using an ELX 405 (BioTek) with assay buffer; the final volume was then aspirated to 20 μL. Next, 20 μL of a 2.3 μM stock of Fluo-4/acetoxymethyl ester (Invitrogen, Carlsbad, CA), prepared as a 2.3 mM stock in DMSO and mixed in a 1:1 ratio with 10% (w/v) Pluronic F-127 and diluted in assay buffer, was added to the wells and the cell plates were incubated for 50 minutes at 37° C. and 5% C02. Dye was removed by washing with the ELX 405 and the final volume was aspirated to 20 μL. Compound master plates were formatted in an 11 point concentration-response curve (CRC) format (1:3 dilutions) in 100% DMSO with a starting concentration of 10 mM using a BRAVO liquid handler (Agilent). Test compound CRCs were then transferred to daughter plates (240 nL) using the Echo acoustic plate reformatter (Labcyte, Sunnyvale, CA) and then diluted into assay buffer (40 μL) to a 2× stock using a Thermo Fisher Combi (Thermo Fisher Scientific, Waltham, MA).
Calcium flux was measured using the Functional Drug Screening System (FDSS) 6000 or 7000 (Hamamatsu Corporation, Tokyo, Japan) as an increase in the fluorescent static ratio. Compounds were applied to cells (20 μL, 2×) using the automated system of the FDSS at 2-4 seconds into the protocol and the data were collected at 1 Hz. At 144 seconds, 10 μL of an EC20 concentration of the muscarinic receptor agonist acetylcholine was added (5×), followed by the addition of 12 μL of an EC80 concentration of acetylcholine at the 230 second time point (5×). Agonist activity was analyzed as a concentration-dependent increase in calcium mobilization upon compound addition. Positive allosteric modulator activity was analyzed as a concentration-dependent increase in the EC20 acetylcholine response. With the acetylcholine EC20 set as baseline, the test compound EC50 is determined as the concentration that produces an increase above baseline of 50% of the maximum increase in acetylcholine response elicted by the test compound. Antagonist activity was analyzed as a concentration-dependent decrease in the ECso acetylcholine response. Concentration-response curves were generated using a four-parameter logistical equation in XLFit curve fitting software (IDBS, Bridgewater, NJ) for Excel (Microsoft, Redmond, WA) or Prism (GraphPad Software, Inc., San Diego, CA).
Compounds were synthesized as described above. Activity (EC50 and Emax) was determined in the mAChR M4 cell-based functional assay as described above and the data are shown in Table 4. The compound numbers correspond to the compound numbers used in Examples 1-33 and Tables 1, 2, and 3.

Emax at 30 µM [%] | EC50 [nM] | Structure (SMILES)
90 | 120 | Cc1nc(N2CCc3ncc(-c4c(C)noc4C)cc3C2)c2cc(F)ccc2n1 [Compound 22, 4-[6-(6-fluoro-2-methyl-quinazolin-4-yl)-7,8-dihydro-5H-1,6-naphthyridin-3-yl]-3,5-dimethyl-isoxazole]
103 | 570 | Cc1nn(C)cc1-c1cnc2c(c1)CN(c1nc(Cl)nc3ccc(Cl)cc13)CC2 [Compound 28, 2,6-dichloro-4-[3-(1,3-dimethylpyrazol-4-yl)-7,8-dihydro-5H-1,6-naphthyridin-6-yl]quinazoline]
97 | 260 | Cc1noc(C)c1-c1cnc2c(c1)CN(c1nc(Cl)nc3ccc(F)cc13)CC2 [Compound 29, 4-[6-(2-chloro-6-fluoro-quinazolin-4-yl)-7,8-dihydro-5H-1,6-naphthyridin-3-yl]-3,5-dimethyl-isoxazole]
95 | 230 | Cc1nn(C)cc1-c1cnc2c(c1)CN(c1nc(Cl)nc3ccc(F)cc13)CC2 [Compound 31, 2-chloro-4-[3-(1,3-dimethylpyrazol-4-yl)-7,8-dihydro-5H-1,6-naphthyridin-6-yl]-6-fluoro-quinazoline]
84 | 780 | Cc1ccc2nc(C)nc(N3CCc4ncc(-c5cn(C)nc5C)cc4C3)c2c1 [Compound 32, 4-[3-(1,3-dimethylpyrazol-4-yl)-7,8-dihydro-5H-1,6-naphthyridin-6-yl]-2,6-dimethyl-quinazoline]

Continued, molecule first:

Structure (SMILES) | Emax at 30 µM [%] | EC50 [nM]
Cc1nc(N2CCc3ncc(-c4cnn(C)c4)cc3C2)c2cc(F)ccc2n1 [Compound 21, 6-fluoro-2-methyl-4-[3-(1-methylpyrazol-4-yl)-7,8-dihydro-5H-1,6-naphthyridin-6-yl]quinazoline] | 90 | 40
Cc1nc(N2CCc3ncc(-c4cnc(C)s4)cc3C2)c2cc(F)ccc2n1 [Compound 23, 5-[6-(6-fluoro-2-methyl-quinazolin-4-yl)-7,8-dihydro-5H-1,6-naphthyridin-3-yl]-2-methyl-thiazole] | 93 | 170
Cc1nc(N2CCc3ncc(-c4ccc(N(C)C)nc4)cc3C2)c2cc(F)ccc2n1 [Compound 24, 5-[6-(6-fluoro-2-methyl-quinazolin-4-yl)-7,8-dihydro-5H-1,6-naphthyridin-3-yl]-N,N-dimethyl-pyridin-2-amine] | 92 | 590
Cc1nc(N2CCc3ncc(-c4ccc(C5CC5)nc4)cc3C2)c2cc(F)ccc2n1 [Compound 25, 4-[3-(6-cyclopropyl-3-pyridyl)-7,8-dihydro-5H-1,6-naphthyridin-6-yl]-6-fluoro-2-methyl-quinazoline] | 96 | 310
Cc1ccc(-c2cnc3c(c2)CN(c2nc(C)nc4ccc(F)cc24)CC3)cn1 [Compound 26, 6-fluoro-2-methyl-4-[3-(6-methyl-3-pyridyl)-7,8-dihydro-5H-1,6-naphthyridin-6-yl]quinazoline] | 102 | 130
Cc1ncc(-c2cnc3c(c2)CN(c2ncnc4ccc(F)cc24)CC3)s1 [Compound 27, 5-[6-(6-fluoroquinazolin-4-yl)-7,8-dihydro-5H-1,6-naphthyridin-3-yl]-2-methyl-thiazole] | 110 | 170
Cc1ccc2nc(Cl)nc(N3CCc4ncc(-c5cnn(C6CC6)c5)cc4C3)c2c1 [Compound 30, 2-chloro-4-[3-(1-cyclopropylpyrazol-4-yl)-7,8-dihydro-5H-1,6-naphthyridin-6-yl]-6-methyl-quinazoline] | 113 | 510
Cc1ccc2nc(C)nc(N3CCc4ncc(-c5cnn(C6CC6)c5)cc4C3)c2c1 [Compound 33, 4-[3-(1-cyclopropylpyrazol-4-yl)-7,8-dihydro-5H-1,6-naphthyridin-6-yl]-2,6-dimethyl-quinazoline] | 92 | 380
